# Patent US20260285850A1, “SUBSTITUTED OXAZOLIDINONES AND IMIDAZOLINONES AS HERBICIDES” (FMC CORPORATION, priority 2023, published 2026)
# Assays:
# Assay type in all cases: in vivo
# [1] = test system: oat, wild (wild oat, Avena fatua); assay: Test A postemergence application, visual injury rating 0-100
# In short: (§1)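 Compound in a non-phytotoxic, surfactant-containing solvent is applied either as a directed soil spray before seedlings emerge or onto emerged plants 2-10 cm tall; pots hold a loam-sand blend. Plants grow 10 days under greenhouse conditions and are rated by eye against untreated controls (0 no effect, 100 complete control).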
# [2] = test system: galium (catchweed bedstraw, Galium aparine); assay: as above; settings: Postemergence, 16 g ai/ha, greenhouse 10 days; 0 no effect, 100 complete control
# In short: as §1
# [3] = test system: barnyardgrass (Echinochloa crus-galli); assay: as above
# In short: as §1
# [4] = test system: horseweed (Erigeron canadensis); assay: as above
# In short: as §1
# soybean (Glycine max) [5] = assay: as above
# In short: as §1
# [6] = test system: ryegrass, Italian (italian ryegrass, Lolium multiflorum); assay: as above
# In short: as §1
# [7] = test system: blackgrass (Alopecurus myosuroides); assay: as above
# In short: as §1
# [8] = test system: ragweed (common ragweed, Ambrosia artemisiifolia); assay: as above
# In short: as §1
# corn (Zea mays) [9] = assay: as above
# In short: as §1
# kochia (Bassia scoparia) [10] = assay: as above
# In short: as §1
# [11] = test system: palmer (palmer amaranth, palmer pigweed, Amaranthus palmeri); assay: as above
# In short: as §1
# [12] = test system: green foxtail (Setaria viridis); assay: as above
# In short: as §1
# [13] = test system: wheat (Triticum aestivum); assay: as above
# In short: as §1
# [14] = test system: oat, wild (wild oat, Avena fatua); assay: Test A preemergence soil spray, visual injury rating 0-100; settings: 10 days
# In short: as §1
# [15] = test system: barnyardgrass (Echinochloa crus-galli); assay: as above; settings: 10 days
# In short: as §1
# soybean (Glycine max) [16] = assay: as above; settings: 10 days
# In short: as §1
# [17] = test system: ryegrass, Italian (italian ryegrass, Lolium multiflorum); assay: as above; settings: 10 days
# In short: as §1
# [18] = test system: blackgrass (Alopecurus myosuroides); assay: as above; settings: 10 days
# In short: as §1
# [19] = test system: ragweed (common ragweed, Ambrosia artemisiifolia); assay: as above; settings: 10 days
# In short: as §1
# corn (Zea mays) [20] = assay: as above; settings: 10 days
# In short: as §1
# kochia (Bassia scoparia) [21] = assay: as above; settings: 10 days
# In short: as §1
# [22] = test system: palmer (palmer amaranth, palmer pigweed, Amaranthus palmeri); assay: as above; settings: 10 days
# In short: as §1
# [23] = test system: green foxtail (Setaria viridis); assay: as above; settings: 10 days
# In short: as §1
# [24] = test system: wheat (Triticum aestivum); assay: as above; settings: 10 days
# In short: as §1
# rice (Oryza sativa) = assay: Test B flooded paddy test, visual plant response rating 0-100; settings: 250 g ai/ha, Flood, applied to paddy water, evaluated after 13 days
# In short: (§2)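 Plants were grown to the 2-leaf stage, then pots were flooded to 3 cm above the soil and compound was applied directly to the paddy water, with that depth kept throughout.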
# [25] = test system: ducksalad (Heteranthera limosa); assay: as above; settings: 250 g ai/ha, Flood, applied to paddy water, evaluated after 13 days
# In short: as §2
# [26] = test system: sedge, umbrella (small-flower umbrella sedge, Cyperus difformis); assay: as above; settings: 250 g ai/ha, Flood, applied to paddy water, evaluated after 13 days
# In short: as §2
# [27] = test system: barnyardgrass (Echinochloa crusgalli); assay: as above; settings: 250 g ai/ha, Flood, applied to paddy water, evaluated after 13 days
# In short: as §2
# [28] = 62 g ai/ha, postemergence, 10 days, 0 = no effect, 100 = complete control
# [29] = Postemergence, 16 g ai/ha, greenhouse 10 days, 0 no effect, 100 complete control
# [30] = 62 g ai/ha, 0 = no effect, 100 = complete control
compound,measurement,setting,value
CC1(C(=O)NC2CC=C(C(=O)OCC(F)F)C2)CN(c2cc(F)cc(F)c2)C(=O)O1 (stereo not drawn) [Compound 152],"Oat, Wild plant response rating (0-100)",[1]; [28],90
same,"Oat, Wild plant response rating (0 to 100 scale)",[1]; [29],80
same,Galium plant response rating (0 to 100 scale),[2],70
same,Barnyardgrass plant response rating (0-100),[3]; [28],100
same,Barnyardgrass plant response rating (0 to 100 scale),[3]; [29],100
same,Horseweed plant response rating (0-100),[4]; [28],70
same,Horseweed plant response rating (0 to 100 scale),[4]; [29],30
same,Soybean plant response rating (0-100),soybean (Glycine max) [5]; [28],80
same,Soybean plant response rating (0 to 100 scale),soybean (Glycine max) [5]; [29],60
same,"Ryegrass, Italian plant response rating (0-100)",[6]; [28],80
same,"Ryegrass, Italian plant response rating (0 to 100 scale)",[6]; [29],70
same,Blackgrass plant response rating (0-100),[7]; [28],100
same,Blackgrass plant response rating (0 to 100 scale),[7]; [29],70
same,Ragweed plant response rating (0-100),[8]; [28],50
same,Ragweed plant response rating (0 to 100 scale),[8]; [29],20
same,Corn plant response rating (0-100),corn (Zea mays) [9]; [28],100
same,Corn plant response rating (0 to 100 scale),corn (Zea mays) [9]; [29],100
same,Kochia plant response rating (0-100),kochia (Bassia scoparia) [10]; [28],90
same,Kochia plant response rating (0 to 100 scale),kochia (Bassia scoparia) [10]; [29],90
same,"Pigweed, Palmer plant response rating (0-100)",[11]; [28],90
same,"Pigweed, Palmer plant response rating (0 to 100 scale)",[11]; [29],60
same,"Foxtail, Green plant response rating (0-100)",[12]; [28],90
same,"Foxtail, Green plant response rating (0 to 100 scale)",[12]; [29],90
same,Wheat plant response rating (0-100),[13]; [28],90
same,Wheat plant response rating (0 to 100 scale),[13]; [29],80
same,"Oat, Wild plant response rating","[14]; 16 g ai/ha, 0 to 100 scale",0
same,"Oat, Wild plant response rating (0-100)",[14]; [30],70
same,Barnyardgrass plant response rating,"[15]; 16 g ai/ha, 0 to 100 scale",30
same,Barnyardgrass plant response rating (0-100),[15]; [30],100
same,Soybean plant response rating,"soybean (Glycine max) [16]; 16 g ai/ha, 0 to 100 scale",0
same,Soybean plant response rating (0-100),soybean (Glycine max) [16]; [30],60
same,"Ryegrass, Italian plant response rating","[17]; 16 g ai/ha, 0 to 100 scale",70
same,"Ryegrass, Italian plant response rating (0-100)",[17]; [30],90
same,Blackgrass plant response rating,"[18]; 16 g ai/ha, 0 to 100 scale",0
same,Blackgrass plant response rating (0-100),[18]; [30],0
same,Ragweed plant response rating,"[19]; 16 g ai/ha, 0 to 100 scale",0
same,Ragweed plant response rating (0-100),[19]; [30],30
same,Corn plant response rating,"corn (Zea mays) [20]; 16 g ai/ha, 0 to 100 scale",10
same,Corn plant response rating (0-100),corn (Zea mays) [20]; [30],60
same,Kochia plant response rating,"kochia (Bassia scoparia) [21]; 16 g ai/ha, 0 to 100 scale",90
same,Kochia plant response rating (0-100),kochia (Bassia scoparia) [21]; [30],90
same,"Pigweed, Palmer plant response rating","[22]; 16 g ai/ha, 0 to 100 scale",0
same,"Pigweed, Palmer plant response rating (0-100)",[22]; [30],90
same,"Foxtail, Green plant response rating","[23]; 16 g ai/ha, 0 to 100 scale",30
same,"Foxtail, Green plant response rating (0-100)",[23]; [30],100
same,Wheat plant response rating,"[24]; 16 g ai/ha, 0 to 100 scale",70
same,Wheat plant response rating (0-100),[24]; [30],90
same,"Plant response rating, Rice (0 to 100 scale, 0 is no effect and 100 is complete control)",rice (Oryza sativa),85
same,"Plant response rating, Ducksalad (0 to 100 scale, 0 is no effect and 100 is complete control)",[25],80
same,"Plant response rating, Sedge, Umbrella (0 to 100 scale, 0 is no effect and 100 is complete control)",[26],90
same,"Plant response rating, Barnyardgrass (0 to 100 scale, 0 is no effect and 100 is complete control)",[27],90
